Molecules are shown by their SMILES.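 Cells were grown in 96-well plates and exposed to each compound for 48 hours at five concentrations; endpoints were interpolated linearly between bracketing concentrations, or set to the highest concentration if not reached. GI50 = concentration required for 50% inhibition of growth.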 Calls of active or inactive are those of the source. No stated cut-off is given here; in the data, active = GI50 up to about 1.1 µM and inactive = higher.

Test systems include 786-0; SW-620; K562; CAKI-1; HOP-62; HCT-15; HL-60; MDA-N; KM12; SK-MEL-5; UACC-257; T47D; Hs-578T; HOP-92; LOX IMVI; NCI/ADR-RES; OVCAR-4; RXF 393; Malme-3M.
Assay in all cases: NCI tumour cell line growth inhibition, 48 h

For `COc1c2c(c3c(c1OC)c(=O)c1ccccc1n3C)OCO2`, the GI50 was > 100 µM (inactive) in the experiment with 786-0; > 100 µM (inactive) with SW-620; 81.5 µM (inactive) in the experiment on K562; > 100 µM (inactive) in the experiment on CAKI-1; > 100 µM (inactive) in the experiment on HOP-62; above 100 µM in the experiment on HCT-15. In addition, the GI50 with HL-60, with MDA-N, with KM12, with SK-MEL-5, in the experiment with UACC-257 and in the experiment on T47D was > 100 µM (inactive) each time. The GI50 is > 100 µM (inactive) in the experiment with Hs-578T; > 100 µM (inactive) in the experiment with HOP-92; > 100 µM (inactive) in the experiment with LOX IMVI; > 100 µM (inactive) with NCI/ADR-RES; 76.2 µM (inactive) in the experiment on OVCAR-4.
Consider `CC(=O)OC/C=C/[C@H](O[Si](C)(C)C(C)(C)C)[C@@H](O)/C=C/COC(C)=O`, for which the GI50 was > 100 µM (inactive) in the experiment on 786-0; > 100 µM (inactive) with SW-620; > 100 µM (inactive) in the experiment with RXF 393; 23 µM (inactive) with K562; > 100 µM (inactive) in the experiment on CAKI-1; > 100 µM (inactive) in the experiment on HOP-62. Also, the GI50 in the experiment with HCT-15 was above 100 µM; with MDA-N it was > 100 µM (inactive); in the experiment on KM12, > 100 µM (inactive); in the experiment on SK-MEL-5, > 100 µM (inactive); with Malme-3M, > 100 µM (inactive); in the experiment on UACC-257, > 100 µM (inactive). Besides, the GI50 is > 100 µM (inactive) in the experiment with T47D; > 100 µM (inactive) in the experiment with Hs-578T; > 100 µM (inactive) with HOP-92; 76.6 µM (inactive) in the experiment on LOX IMVI; > 100 µM (inactive) in the experiment on NCI/ADR-RES; > 100 µM (inactive) in the experiment with OVCAR-4.
With `COc1c(-c2nc3ccc(N4CCN(C)CC4)nc3[nH]2)cc(OC)c2[nH]c(COC(C)=O)nc12`, the GI50 in the experiment with 786-0 is 22.8 µM (inactive); in the experiment with SW-620 it was 27.9 µM (inactive); with RXF 393 it was 21.8 µM (inactive); with K562 it was 1.52 µM (inactive); in the experiment on CAKI-1 it was > 100 µM (inactive); in the experiment on HOP-62 it was 25 µM (inactive). Besides, the GI50 with HCT-15 is 46 µM; in the experiment on MDA-N, 24.7 µM (inactive); with KM12, 23.9 µM (inactive); with SK-MEL-5, 16.2 µM (inactive); in the experiment with Malme-3M, 28.1 µM (inactive); with UACC-257, 24.8 µM (inactive). Besides, the GI50 in the experiment with T47D was 22.5 µM (inactive); in the experiment on Hs-578T, > 100 µM (inactive); in the experiment on HOP-92, > 100 µM (inactive); with LOX IMVI it was 25.9 µM (inactive); in the experiment on NCI/ADR-RES it was > 100 µM (inactive); with OVCAR-4 it was 32.4 µM (inactive).
Regarding `CC(=O)O[C@H]1C[C@@H](OC(C)=O)[C@@](C)(O)[C@@H]2[C@@H](OC(C)=O)[C@@]3(O)[C@H](/C=C(/CCl)[C@H]4O[C@H]4[C@@H](OC(C)=O)[C@@]12C)OC(=O)[C@@H]3C`, the GI50 was > 25 µM (inactive) in the experiment with 786-0; > 25 µM (inactive) in the experiment with SW-620; 19.8 µM (inactive) in the experiment with RXF 393; > 25 µM (inactive) in the experiment on K562; > 25 µM (inactive) in the experiment on CAKI-1; > 25 µM (inactive) in the experiment with HOP-62. Also, the GI50 in the experiment with HCT-15 is above 25 µM; in the experiment with MDA-N it was 12 µM (inactive); with KM12 it was > 25 µM (inactive); in the experiment on SK-MEL-5, 22.3 µM (inactive); with Malme-3M, > 25 µM (inactive); in the experiment with UACC-257 it was > 25 µM (inactive). For the same molecule, the GI50 in the experiment with T47D was > 25 µM (inactive); with Hs-578T, > 25 µM (inactive); in the experiment with HOP-92, > 25 µM (inactive); in the experiment on LOX IMVI, 21.2 µM (inactive); with NCI/ADR-RES, > 25 µM (inactive); in the experiment with OVCAR-4, > 25 µM (inactive).
As for `CC(=O)Oc1ccc2c(c1)oc1c3ccc(OC(C)=O)cc3n(C)c(=O)c21`, the GI50 in the experiment with 786-0 is 1.15 µM (inactive); with SW-620, 26.4 µM (inactive); in the experiment on RXF 393, 38.7 µM (inactive); with K562, 30.5 µM (inactive); in the experiment with HOP-62 it was 34.9 µM (inactive); in the experiment on HCT-15, 36.5 µM. For the same molecule, the GI50 in the experiment with MDA-N is 32 µM (inactive); in the experiment with KM12 it was 3.78 µM (inactive); in the experiment with SK-MEL-5 it was 4.71 µM (inactive); with Malme-3M it was 6.47 µM (inactive); with UACC-257 it was 21.9 µM (inactive); with T47D, 34.8 µM (inactive). Besides, the GI50 with Hs-578T is 4.48 µM (inactive); in the experiment on HOP-92 it was 28.7 µM (inactive); with NCI/ADR-RES, 15.7 µM (inactive).
In the case of `CC(=O)OC1C(COC(=O)c2ccccc2)OC(Nc2ncc(-c3ccc(Br)cc3)s2)C(OC(=O)c2ccccc2)C1OC(=O)c1ccccc1` (stereo unspecified), the GI50 was 84.1 µM (inactive) in the experiment with 786-0; > 100 µM (inactive) in the experiment on SW-620; > 100 µM (inactive) in the experiment with RXF 393; > 100 µM (inactive) in the experiment on K562; > 100 µM (inactive) in the experiment with HOP-62; above 10 µM with HCT-15. Further, the GI50 in the experiment on MDA-N, in the experiment on SK-MEL-5, in the experiment with Malme-3M, in the experiment with UACC-257, in the experiment with T47D and in the experiment on Hs-578T was > 100 µM (inactive) each time. Besides, the GI50 in the experiment with HOP-92 is 93.1 µM (inactive); with LOX IMVI, > 100 µM (inactive); with NCI/ADR-RES, > 10 µM (inactive); with OVCAR-4, > 100 µM (inactive).
`Cc1cccc2nc3cc(O)cc(O)c3c(O)c12`: the GI50 in the experiment with 786-0, in the experiment on SW-620, with RXF 393, in the experiment with K562, with CAKI-1 and with HOP-62 was > 10 µM (inactive) each time. The GI50 in the experiment with HCT-15 is above 10 µM; with MDA-N it was > 10 µM (inactive); in the experiment with KM12 it was > 10 µM (inactive); in the experiment on SK-MEL-5, > 10 µM (inactive); with Malme-3M it was > 10 µM (inactive); in the experiment on UACC-257 it was > 10 µM (inactive). Besides, the GI50 in the experiment with T47D is > 10 µM (inactive); with Hs-578T, 2.86 µM (inactive); in the experiment with HOP-92, > 10 µM (inactive); in the experiment with LOX IMVI, > 10 µM (inactive); in the experiment with NCI/ADR-RES, > 10 µM (inactive); in the experiment with OVCAR-4, > 10 µM (inactive).
As to `C=C1C(=O)O[C@H]2[C@H]1CC(=O)/C(C)=C/CC[C@@]1(C)O[C@@H]21`, the GI50 in the experiment on 786-0 was 0.582 µM (active); in the experiment with SW-620, 0.324 µM (active); in the experiment on RXF 393, 0.44 µM (active); in the experiment with CAKI-1, 0.53 µM (active); in the experiment with HOP-62, 8.36 µM (inactive); in the experiment with HCT-15, 0.515 µM. For the same molecule, the GI50 was 0.259 µM (active) in the experiment on MDA-N; 2.49 µM (inactive) in the experiment with KM12; 0.973 µM (active) with SK-MEL-5; 1.25 µM (inactive) with Malme-3M; 1.12 µM (active) in the experiment with T47D; 2.4 µM (inactive) with Hs-578T. The GI50 in the experiment with HOP-92 is 0.74 µM (active); in the experiment on LOX IMVI it was 0.354 µM (active); with NCI/ADR-RES, 1.4 µM (inactive); in the experiment with OVCAR-4, 2.93 µM (inactive).

(Values after ChEMBL document CHEMBL1201862, “PubChem BioAssay data set” (2004).)
